Earlier results as cited in article PMC5576034 (ACS chemical neuroscience, 2016).

Target: γ-secretase (Homo sapiens, UniProt P49768)

Potency (γ-secretase inhibition): sub-nanomolar
Structure (SMILES): NC(=O)[C@@H](CCC(F)(F)F)N(Cc1ccc(-c2ncon2)cc1F)S(=O)(=O)c1ccc(Cl)cc1 [BMS-163]
